Test results from US20250154525A1, “PLANT VIRUS MOVEMENT PROTEINS AND METHODS OF USING SAME” (Molecular Transfer, Inc., priority 2016, published 2025).
Values joined by “and” are separate entries in the source; they are usually repeats but may differ in a detail not shown here. Equal entries are not always repeated.

Tests used:
HeLa Cells [1] = assay: GFP plasmid transfection with DOTMA/DOPE plus surface ligand peptide, fluorescent plate reader (Example 1); format: cell-based; settings: DOTMA/DOPE + peptide linked to R12 or K16; EF1Alpha eGFP plasmid; 42 hours
Description: (§1) Cells were plated to so that on the day of transfection the cells were 70% confluent in 96 well tissue culture plates. A DOMTA/DOPE Lipid solution (1:1 molar ratio) at 2 mg/mL in water were mixed with an equal volume cell surface ligand containing adhesion peptide, the plant virus movement protein, or peptide derived therefrom, that had the nucleic acid binding moiety RRRRRRRRRRRR (SEQ ID NO:109) or KKKKKKKKKKKKKKKK (SEQ ID NO: 102) covalently linked to the N-terminus, or C-terminus of each peptide during peptide synthesis. Peptides were at 2 mg/mL in water. The DOTMA/DOPE and the solution containing the cell surface ligand containing adhesion peptide, the plant virus movement protein, or peptide derived therefrom, surface ligand peptide the was diluted 1 to 1 (v/v) in water. DOMTA/DOPE/PEPTIDE solutions were added to 0.1 mL of a plasmid DNA solution (EF1Alpha eGFP plasmid) at 10 μg/mL in OptiMEM.
(§2) All solutions were at room temperature. A volume of 0.2 mL of a 10 μg/mL solution of DNA was aliquoted into each well of a non-tissue cultured treated plate. 1-12 μL of transfection reagents were added to DNA solutions respectively. The transfection reagent and DNA solution was mixed by pipetting up and down twice. Transfection complexes were formed for 10 minutes. After 10 minutes, 0.01 or 0.02 mL of the transfection complex was added to cells. HuVEC, HeLa, human adult keratinocytes, human primary adult fibroblast, and A549 cells all respectively received 0.01 mL of the transfection complex. Human skeletal muscle cells, mouse C2C12 cells, and Jurkat, cells received 0.02 mL of the transfection complex. Cells were incubated for 42 hours at 37° C. at 5% CO2. Plates were read on a fluorescent plate reader. Cells were also examined visually under a microscope to assess the extent of transfection (in terms of the percent of cells transfected) with a fluorescent microscope. Other modes of analysis, for example quantification with B-galactocidase or luciferase reports plasmids can also be used.
(§3) Surface ligand that caused increase expression of GFP over the lipid DOTMA with no surface ligand were considered to enhance transfection or had higher % cells transfected were considered to enhance transfection. Peptides that gave greater than 2-fold enhancement are noted in bold and could be further optimized by adding different transfection enhancers or could be used with different cationic lipids or polymers.
(§4) Tables 2-7, below, provide the results of the transfection enhancements with the various cell types, while Table 8 lists the peptides that were determined by visual inspection to enhance the transfection of the denoted cell lines over the lipid DOTMA.

NL-1 iPS Cells = assay: as above; format: cell-based; settings: DOTMA/DOPE + peptide linked to R12 or K16; EF1Alpha eGFP plasmid; 42 hours
Description: as §1, §2, §3, §4

C2C12 Cells = assay: as above; format: cell-based, mouse; settings: DOTMA/DOPE + peptide linked to R12 or K16; EF1Alpha eGFP plasmid; 42 hours
Description: as §1, §2, §3, §4

Human Fibroblast Cells = assay: as above; format: cell-based; settings: DOTMA/DOPE + peptide linked to R12 or K16; EF1Alpha eGFP plasmid; 42 hours
Description: as §1, §2, §3, §4

HuVec Cells = assay: as above; format: cell-based; settings: DOTMA/DOPE + peptide linked to R12 or K16; EF1Alpha eGFP plasmid; 42 hours
Description: as §1, §2, §3, §4

Jurkat Cells = assay: as above; format: cell-based; settings: DOTMA/DOPE + peptide linked to R12 or K16; EF1Alpha eGFP plasmid; 42 hours
Description: as §1, §2, §3, §4

some examined cell types = assay: Summary of Example 1: transfection expression and % cells transfected over the no peptide control; format: cell-based; settings: on some examined cell types
Description: as §1, §2, §3

HeLa Cells [2] = assay: GFP transfection with DOTMA/SEQ ID NO: 72 (fusogenic peptide)/peptide compared with Lipofectamine 2000; format: cell-based
Description: as §1, §2
The fusogenic peptide was added to the DOMTA/peptide formulation to achieve a final concentration of 0.1 mg/mL to see if transfection reagents were further enhanced by the addition of a fusogenic peptide and could provide higher transfection efficiency into HeLa cells and expression than the commercially available Lipofectamine 2000.

[3] = 0.1 μL of DOTMA/SEQ ID NO: 72/Peptide in well of a 96 well plate
[4] = 0.2 μL of DOTMA/SEQ ID NO: 72/Peptide in well of a 96 well plate
[5] = 0.3 μL of DOTMA/SEQ ID NO: 72/Peptide in well of a 96 well plate
[6] = 0.4 μL of DOTMA/SEQ ID NO: 72/Peptide in well of a 96 well plate

Row | Substance | Relative Fluorescence of Transfection of HeLa Cells (RF) (HeLa Cells [1]) | Relative Fluorescence of Transfection of NL-1 iPS Cells (RF) (NL-1 iPS Cells) | Relative Fluorescence of Transfection of C2C12 Cells (RF) (C2C12 Cells) | Relative Fluorescence of Transfection of Human Fibroblast Cells (RF) (Human Fibroblast Cells) | Relative Fluorescence of Transfection of HuVec Cells (RF) (HuVec Cells) | Relative Fluorescence of Transfection of Jurkat Cells (RF) (Jurkat Cells) | transfection expression and % cells transfected over the no peptide control (some examined cell types) | Relative Fluorescence DOTMA/SEQ ID NO: 72/Peptide, HeLa Cells (RF) (HeLa Cells [2]; [3]) | Relative Fluorescence DOTMA/SEQ ID NO: 72/Peptide, HeLa Cells (RF) (HeLa Cells [2]; [4]) | Relative Fluorescence DOTMA/SEQ ID NO: 72/Peptide, HeLa Cells (RF) (HeLa Cells [2]; [5]) | Relative Fluorescence DOTMA/SEQ ID NO: 72/Peptide, HeLa Cells (RF) (HeLa Cells [2]; [6])
1 | 107 (RRRRRRRR) [compound 107] | 75 | 1441 | – | – | – | – | – | – | – | – | –
2 | 229 (PPFLMLLKGSTR) [compound 229] | 8816 | 13491 | 1164 | 6811 | 5452 | 8079 | increased transfection expression and the % cells transfected | – | – | – | –
3 | 256 (RQVFQVAYIIIKA) [compound 256] | 2243 | 1825 | 3207 | 2656 | 3030 | 3322 | increased transfection expression and the % cells transfected | – | – | – | –
4 | 230 (WQPPRARI) [compound 230] | 8944 | 14524 | 2606 | 11771 | 9067 | 10229 | increased transfection expression and the % cells transfected | – | – | – | –
5 | 338 (GTPGPQGIA) [compound 338] | 6241 | 17288 | 2290 | 5625 | 12000 | 4475 | increased transfection expression and the % cells transfected | – | – | – | –
6 | 502 (RNIAEIIKDI) [compound 502] | – | – | 2589 | – | – | – | – | – | – | – | –
7 | 361 (YIGSR) [compound 361] | 3698 | 9363 | 585 | 7014 | 6017 | 7006 | increased transfection expression and the % cells transfected | – | – | – | –
8 | 224 (KPDVRSYTITG) [compound 224] | 5559 | 25209 | 1469 | 5995 | 15945 | 13170 | – | – | – | – | –
9 | 363 (LAGSCLARFSTM) [compound 363] | 2590 | 4189 | 1080 | 3008 | 1383 | 2432 | – | – | – | – | –
10 | 236 (KNNQKSEPLIGRKKT) [compound 236] | 7202 and 5042 | 43542 and 22256 | – | 3630 and 3000 | 14418 | – | increased transfection expression and the % cells transfected | 5993 | 8846 | 8492 | 7316
11 | 234 (YEKPGSPPREVVPRPRPGV) [compound 234] | 3867 | 14410 | 681 | 4145 | 13956 | 5441 | – | – | – | – | –
12 | 501 (DLGTAGSCLRRFSTM) [compound 501] | – | – | 5913 | 9473 | – | 12350 | increased transfection expression and the % cells transfected | 23571 | 23993 | 20410 | 14749
13 | 393 (LGTIPG) [compound 393] | – | – | – | – | – | – | increased transfection expression and the % cells transfected | – | – | – | –
14 | 349 (RNIAEIIKDI) [compound 349] | 4433 | 33103 | – | 8810 | 22907 | 23167 | increased transfection expression and the % cells transfected | – | – | – | –
15 | 235 (KARSFNVNQLLQD) [compound 235] | – | – | – | – | 26940 | – | – | – | – | – | –
16 | 371 (GPAGKDGEAGAQG) [compound 371] | 5180 | 17587 | 983 | 4584 | 10669 | 6093 | – | – | – | – | –
17 | 335 (TVFSVDQDNMLE) [compound 335] | 26954 | 14424 | 4689 | 8534 | 6350 | 4567 | – | 12866 | 12458 | 11547 | 9753
